# Laboratory results from PMC3386930, “Altering APP Proteolysis: Increasing sAPPalpha Production by Targeting Dimerization of the APP Ectodomain” (PLoS ONE, 2012).
# Entries after “also recorded” stand apart in the source; their conditions may differ.
# Legend:
# [1] = system: APP; details: cited from earlier work
# Description: These changes in conformation may be important in setting the balance between α-cleavage and β-cleavage of APP because the relative rates of these cleavages are known to be affected by interactions between APP and a number of proteins, both at the cell surface and during recycling of APP [19], [20]. Altering the balance of these two cleavages to favor α-cleavage is of potential therapeutic benefit for Alzheimer's disease since it would reduce Aβ production and enhance sAPPα production, without inhibition of the beta and gamma secretases. A precedent exists for this effect in that an increa ...
# [2] = target: T1, eAPP230–624 (Homo sapiens, UniProt P05067); assay: Small-angle X-ray scattering (SAXS) of eAPP230–624 complexes; type: binding; details: for MWcalc/MWseq: SAXS relative mass, MWseq 45-kDa for eAPP230–624, max. error ±0.2, monomer around 1.3, protein alone 2.0; for Dmax / Rg: SAXS, GNOM, eAPP230–624 with peptide; for Dmax: maximum dimension, max. estimated error ±10 Å; for Rg: radius of gyration, max. estimated error ±2 Å
# T1 construct: made in house
# Procedure: (§1) The samples were incubated on ice for 20 minutes and then concentrated to 50 µl with 10-kDa cutoff concentrators (Millipore). […] Samples of the filtrates were used for buffer subtraction.
# (§2) The samples were then concentrated and purified with a Superdex S200 size-exclusion column with 20 mM Tris pH 7.4, 100 mM sodium chloride and 2 mM EDTA. Samples of the protein buffer from the size-exclusion columns were used for buffer subtraction.
# (§3) Data collection and processing
# (§4) Small-angle X-ray scattering data were collected using protein concentrations in the range of 0.5–3 mg/ml and an X-ray wavelength of 1.11 Å at beam line 12.3.1 (Advanced Light Source). Data were integrated with software customized for the beam line and processed with the program PRIMUS [30]. The program GNOM [31] was used to calculate the maximum dimension and the radius of gyration and to estimate the intensity of the scattering at zero angle for higher concentration samples.
# [3] = target: T1, eAPP230–624; assay: Intrinsic tryptophan fluorescence of eAPP230–624; type: binding; details: for quenching constant (Ksv): linear part, equation 1
# Procedure: (§5) The excitation spectra of the intrinsic tryptophan fluorescence were recorded using either a Shimadzu RF-530PC (Shimadzu Scientific Instruments) or a Spectramax XPS spectrophotometer (Molecular Devices).
# Full emission spectra were measured with the Shimadzu RF-530PC using a 3 ml quartz cuvette, a 5 nm slit width and protein concentrations between 0.2–0.6 µM. […] For these larger dilutions, control titrations with the protein alone were used to generate a scaling matrix where the scale factor was both a function of wavelength and dilution. […] A similar scaling matrix was used to correct for the effect of dilution with DMSO. […] All titrations were performed at 24°C. The oligomers were stored on ice during the experiment.
# These concentrations are analogous to concentrations used to create complexes for the small angle x-ray scattering analysis. The incubated material was diluted with PBS so that the final protein concentration was 0.5 µM. The spectra were recorded with the Shimadzu […].
# For experiments with the Spectromax XPS plate reader, an excitation wavelength of 295 nm was used. This excitation wavelength was chosen to minimize both the contribution of tyrosine in the protein and the background fluorescence of the 96-well plates (Costar #3915).
# For the quenching experiments, the data were analyzed by constructing Stern-Volmer plots, F0/F vs. Q, where Fo is the intensity of the fluorescence at zero concentration, F is the intensity of the fluorescence, and Q is the concentration of the quenching agent. When quenching is through either a static (binding) or dynamic (collisional) mechanism this plot is linear and follows the equation: [drawing 1] (1) where Ksv is the quenching constant. When both processes are present the Stern-Volmer plot is quadratic: [drawing 2] (2) where KD is the equilibrium constant associated with dynamic quenching and Ks is the equilibrium constant associated with static quenching. All parameters were determined using PRISM (GraphPad) and the appropriate non-linear curve fitting routine.
# The centroid wavelength (λc) was calculated as: [drawing 3] (3) where I(λi) is the intensity observed for the wavelength (λi). The range of wavelengths was 310–390 nm.
# [4] = Size-exclusion chromatography of Aβ fragments; type: physicochemical; details: Superdex 75 column, PBS, indicates smaller dimers or monomers
# Description: The arrow indicates the direction of shift of the fluorescence peak. […] The black line indicates the starting concentration and the blue line indicates the final concentration. The arrow indicates the direction of shift of the fluorescence peak.
# [5] = target: T1, eAPP230–624; assay: Difference absorption spectra of eAPP230–624; type: binding
# [6] = system: Aβ oligomers; details: cited from earlier work
# [7] = target: MBP-eAPP_(230–624), maltose binding protein fusion protein containing residues 230–624 (UniProt P05067); assay: small-angle X-ray scattering (SAXS); 150 µl MBP-eAPP230-624 (≈0.5 mg/ml) diluted with 400 µl of peptide solution, 20 minutes on ice, concentrated to 50 µl with 10-kDa cutoff concentrators
# [8] = target: TRX-eAPP_(290–624), thioredoxin fusion protein containing residues 290–624 of APP695 (UniProt P05067); assay: small-angle X-ray scattering (SAXS); eAPP fragment incubated on ice with Aβ oligomers or Aβ fragments (peptide less than 10 µM), concentrated and purified on Superdex S200 in 20 mM Tris pH 7.4, 100 mM sodium chloride, 2 mM EDTA
# [9] = target: eAPP_(230–624), fragment of the APP ectodomain containing residues 230–624 (UniProt P05067); assay: as above
# [10] = system: MBP-eAPP230–624; assay: Small-angle X-ray scattering (SAXS) of MBP-eAPP230–624 complexes; type: binding; details: 50 µM compound, 1:12 molar ratio, PBS plus 2% DMSO
# Procedure: as §5, §1, §2, §3, §4
# [11] = system: 7W-CHO cells; assay: sAPPα and sAPPβ production in 7W-CHO cells (AlphaLISA); type: cell-based; details: for sAPPα production / α-cleavage of APP (in words): 1 µM compound, 24 hours, 50,000 cells per well, vs 0.01% DMSO
# Procedure: (§6) B103 rat neuroblastoma cells and 7W-CHO cells were seeded at 100,000 or 50,000 cells per well in a 96-well plate and allowed to grow for one day. The B103 rat neuroblastoma cells stably expressing human wild-type APP were a kind gift from Dr. Lennart Mucke (J. David Gladstone Institute of Neurological Disease and University of California, San Francisco). The 7W-CHO cells were a kind gift from Dr. Edward Koo (Department of Molecular Pathology, University of California, San Diego). The cell culture medium was then changed and the cells treated with 1 µM disulfiram, 1 µM sulfiram, or 0.01% DMSO (control). After 24 hours, the amount of sAPPα and sAPPβ produced in the medium was quantified using the AL231C and AL232C AlphaLISA kits from Perkin Elmer, respectively, modified using a custom biotinylated APP antibody.
# A) Effect of treatment with disulfiram and sulfiram on sAPPα and Aβ production in 7W-CHO cells. 7W-CHO cells were seeded at 50,000 cells per well in a 96-well plate and allowed to grow for one day. The cell culture medium was then changed and the cells treated with 1 µM disulfiram, 1 µM sulfiram, or 0.01% DMSO (control). After 24 hours, the amount of sAPPα and sAPPβ produced in the medium was quantified using the AL231C and AL232C AlphaLISA kit from Perkin Elmer, modified using a custom biotinylated human APP antibody. B) Effect on the ratio of α to β cleavage in 7W-CHO cells, as calculated by dividing the amount of sAPPα to sAPPβ produced by the 50,000 7W-CHO cells during one day under the effect of either disulfiram, sulfiram or a DMSO control. C) Effect on the ratio of α to β cleavage in B103 cells. B103 neuroblastoma cells were seeded at 100,000 cells per well in a 96-well plate and allowed to grow for one day. The cell culture medium was then changed and the cells treated with 1 µM disulfiram, 1 µM sulfiram, or 0.01% DMSO (Control). After 24 hours, the amount of sAPPα and sAPPβ produced in the medium was quantified using the same modified AL231C and AL232C AlphaLISA kit from Perkin Elmer. The ratio of α to β cleavage was calculated by dividing the amount of sAPPα to sAPPβ produced by the 100,000 B103 cells during one day under the effect of the disulfiram, sulfiram or DMSO control.
# [12] = system: B103 rat neuroblastoma cells stably expressing human wild-type APP; assay: sAPPα and sAPPβ production in B103 cells (AlphaLISA); type: cell-based; details: 1 µM compound, 24 hours, 100,000 cells per well, vs 0.01% DMSO
# Procedure: as §6
# A) Effect of treatment with disulfiram and sulfiram on sAPPα and Aβ production in 7W-CHO cells. […] After 24 hours, the amount of sAPPα and sAPPβ produced in the medium was quantified using the AL231C and AL232C AlphaLISA kit from Perkin Elmer, modified using a custom biotinylated human APP antibody. B) Effect on the ratio of α to β cleavage in 7W-CHO cells, as calculated by dividing the amount of sAPPα to sAPPβ produced by the 50,000 7W-CHO cells during one day under the effect of either disulfiram, sulfiram or a DMSO control. […]
# [13] = system: neuronal cells; details: similar activity; reference not printed with this sentence, 42 for APP319–335; cited from earlier work
# Description: A 17-amino acid peptide (APP319–335) that contains the RERMS sequence is an example of such a compound. […] The mechanism by which the RERMS peptide enhances the producti ...
# [14] = 0.64 µM eAPP230–624, RERMS 0–270 µM
compound,measurement,setting,value
sAPPα: product of α-cleavage of APP; contains almost the entire ectodomain,inhibition of APP dimerization and cell survival (in words),[1],inhibit APP dimerization and increase cell survival
Aβ1-28: Aβ fragment,MWcalc/MWseq,[2],0.9
same,Dmax,[2],170 Å
same,Rg,[2],46 Å
same,inhibition of eAPP dimerization (in words),[3]; legend of titration of 0.64 µM eAPP230–624 with 0–60 µM fragment,inhibit eAPP dimerization
same,pattern of changes in the intrinsic fluorescence (in words),"[3]; titration of 0.64 µM eAPP230–624, 345 nm",acted like Aβ1-40 dimers in terms of the changes in the intrinsic fluorescence
same,elution later than the 7-kDa peak,[4],0.5 mls
"O=S(=O)(O)c1cccc2cccc(Nc3ccccc3)c12 [1,8-ANS, 1-anilinonaphthalene-8-sulfonic acid]",fluorescence intensity drop,"[3]; 1,8-ANS below 50 µM (1:14 protein to 1,8-ANS molar ratio)",more than 50%
same,quenching of fluorescence at high concentration,"[3]; 1,8-ANS greater than 150 µM",quench nearly all the fluorescence
same,quenching of intrinsic fluorescence (FRET),"[3]; 1:20 protein to 1,8-ANS molar ratio, excitation wavelengths greater than 285 nm",efficiently quenched the intrinsic fluorescence
same,quenching constant (Ksv),"[3]; 345 nm, Shimadzu RF-530PC, 0.64 µM eAPP230–624, 24°C",9.3 ± 0.1 mM⁻¹
same,quenching constant (Ksv),"[3]; 375 nm, Shimadzu RF-530PC, 0.64 µM eAPP230–624, 24°C",10.9 ± 0.2 mM⁻¹
same,quenching constant (Ksv),"[3]; 375 nm, Spectramax XPS plate reader",9.6 ± 0.3 mM⁻¹
same,effect on absorption of eAPP230–624,"[5]; one-to-ten molar ratio protein to 1,8-ANS, 3 µM eAPP230–624",significant effect on the absorption
same,binding to Aβ oligomers and Aβ aggregation,[6],bind to Aβ oligomers and prevent Aβ aggregation
Aβ1-28 (peptide),MWcalc/MWseq (apparent mass of the sample over the sequence mass of the eAPP fragment),[7],1.2
same,MWcalc/MWseq (apparent mass of the sample over the sequence mass of the eAPP fragment),[8],1.5
same,MWcalc/MWseq (apparent mass of the sample over the sequence mass of the eAPP fragment),[9],0.9
CCN(CC)C(=S)SC(=S)N(CC)CC [Sulfiram],effect on monomer-dimer equilibrium / dimerization of MBP-eAPP230–624 (in words),[10],significantly affected the monomer-dimer equilibrium of MBP-eAPP230–624 in favor of the monomer; also recorded: shift the monomer-dimer equilibrium in favor of the monomer
same,quenching of intrinsic fluorescence (in words),"[3]; 0.64 µM eAPP230–624, disulfiram 0–130 µM, sulfiram 0–320 µM, Shimadzu RF-530PC",significantly quenched the intrinsic fluorescence
same,effect on dimerization of the ectodomain fragment (in words),"[3]; intrinsic fluorescence, confirmed with SAXS",inhibit dimerization of the ectodomain fragment
same,change in extinction coefficient,"[5]; 1:6 molar ratio, 8.3 µM eAPP230–624, 50 µM compound, PBS plus 2% DMSO",significant drop in the extinction coefficient
same,sAPPα production / α-cleavage of APP (in words),[11],increase sAPPα production
same,sAPPα production / α-cleavage of APP (in words),[11]; listed as sulfiram,significantly enhance the production of sAPPα; also recorded: enhance α-cleavage significantly
same,relative ability to enhance sAPPα production in cells (in words),"[11]; sulfiram vs disulfiram, cell line not stated at place",reduced ability to enhance sAPPα production in cells
same,sAPPα production / α-cleavage of APP (in words),[12],significantly enhance the production of sAPPα; also recorded: enhance α-cleavage significantly
RERMS [The RERMS peptide itself (APP 328–332)],SAXS form of eAPP230–624 complex (in words),[2]; SAXS of complex,dimer with a significantly smaller maximum dimension and radius of gyration than the native dimer
same,MWcalc/MWseq,[2],1.8
same,Dmax,[2],130 Å
same,Rg,[2],39 Å
same,red-shift in the centroid wavelength,[3]; [14],1 nm
same,red-shift in the peak position,[3]; [14],approximately 2 nm
same,effect on intensity of intrinsic fluorescence (in words),"[3]; 0.64 µM eAPP230–624, RERMS 0–270 µM (1:0–1:420)",quenches the intensity of the intrinsic fluorescence
same,fold reduced potency vs APP319–335,[13],10 -fold
